Substitutions are numbered along the chain they refer to. Like-named read-outs stand apart in the source and are kept apart here.
Key:
CYP2B6 [1] = conditions: cited from earlier work
CYP2C9 [2] = target: T1, CYP2C9 (Homo sapiens, UniProt P11712); conditions: fraction of substrate metabolized by the inhibited CYP pathway (CYP2C9); cited from earlier work
CYP2C9 [3] = target: T1, CYP2C9; conditions: AUCI/AUC with multiple doses of efavirenz (steady state Cmax); CYP2C9 substrates
CYP1A2 = CYP1A2 (Homo sapiens, UniProt P05177); experiment: Inhibition of CYP1A2; conditions: 50 μM phenacetin
CYP1A2, sequence (P05177 whole entry): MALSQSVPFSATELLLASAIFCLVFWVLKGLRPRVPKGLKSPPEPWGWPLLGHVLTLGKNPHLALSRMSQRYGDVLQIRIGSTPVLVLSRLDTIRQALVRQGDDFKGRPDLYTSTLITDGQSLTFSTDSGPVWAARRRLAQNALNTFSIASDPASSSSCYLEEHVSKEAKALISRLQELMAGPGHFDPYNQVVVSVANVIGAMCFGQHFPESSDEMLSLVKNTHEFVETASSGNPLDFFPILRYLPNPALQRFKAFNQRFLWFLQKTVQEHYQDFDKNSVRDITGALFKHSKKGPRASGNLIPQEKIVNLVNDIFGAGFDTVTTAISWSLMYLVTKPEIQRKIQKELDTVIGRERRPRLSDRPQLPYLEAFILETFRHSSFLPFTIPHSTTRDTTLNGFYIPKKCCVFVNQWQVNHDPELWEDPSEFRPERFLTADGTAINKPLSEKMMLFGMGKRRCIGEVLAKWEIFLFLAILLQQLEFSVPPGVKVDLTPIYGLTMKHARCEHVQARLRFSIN

expressed CYP2B6 [4] = conditions: cited from earlier work
CYP2C8 [5] = target: T2, CYP2C8 (Homo sapiens, UniProt P10632, K399R/R139K); experiment: Inhibition of CYP2C8
T2 sequence (P10632 1-490 R139K/K399R): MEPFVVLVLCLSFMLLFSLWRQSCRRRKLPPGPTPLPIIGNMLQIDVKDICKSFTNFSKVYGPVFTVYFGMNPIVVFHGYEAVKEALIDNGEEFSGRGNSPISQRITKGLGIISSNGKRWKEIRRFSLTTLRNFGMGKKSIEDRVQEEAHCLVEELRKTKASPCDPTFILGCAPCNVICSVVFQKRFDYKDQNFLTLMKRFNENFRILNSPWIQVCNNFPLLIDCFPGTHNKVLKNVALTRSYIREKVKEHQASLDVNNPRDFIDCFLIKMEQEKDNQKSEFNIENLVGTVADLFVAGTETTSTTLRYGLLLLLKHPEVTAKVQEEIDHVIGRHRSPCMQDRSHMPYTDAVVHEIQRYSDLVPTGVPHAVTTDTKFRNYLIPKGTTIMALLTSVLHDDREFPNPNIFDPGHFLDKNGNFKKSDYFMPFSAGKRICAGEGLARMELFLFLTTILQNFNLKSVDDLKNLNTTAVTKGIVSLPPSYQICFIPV

CYP2C8 [6] = target: T3, CYP2C8 (Homo sapiens, UniProt P10632); experiment: Inhibition of CYP2C8; conditions: pooled HLMs; substrate amodiaquine
T3 sequence (P10632 1-490): T2 sequence (P10632 1-490 R139K/K399R) with K139R, R399K

CYP2C19 [7] = target: T4, CYP2C19 (Homo sapiens, UniProt P33261); experiment: Inhibition of CYP2C19; format: in vitro ADME
T4 sequence (P33261 whole entry, canonical isoform): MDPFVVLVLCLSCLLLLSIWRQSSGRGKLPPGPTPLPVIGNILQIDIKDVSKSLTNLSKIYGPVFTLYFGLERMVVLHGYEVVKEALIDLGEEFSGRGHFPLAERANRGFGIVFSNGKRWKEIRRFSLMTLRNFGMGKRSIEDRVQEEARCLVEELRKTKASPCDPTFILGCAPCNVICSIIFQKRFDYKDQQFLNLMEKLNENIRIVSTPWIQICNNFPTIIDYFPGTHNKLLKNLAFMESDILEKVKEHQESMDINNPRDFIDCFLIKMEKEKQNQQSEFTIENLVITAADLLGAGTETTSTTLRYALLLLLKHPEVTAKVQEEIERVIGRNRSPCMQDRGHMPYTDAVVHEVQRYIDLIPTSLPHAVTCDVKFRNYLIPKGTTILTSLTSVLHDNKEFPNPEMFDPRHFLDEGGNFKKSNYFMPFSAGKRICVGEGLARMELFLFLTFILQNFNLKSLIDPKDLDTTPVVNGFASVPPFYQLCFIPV

[8] = test system: CYP isoforms (eight major CYPs except for CYP2B6); experiment: Time-dependent inhibition of CYP isoforms in pooled HLMs; format: in vitro ADME, human; conditions: 50 μM efavirenz
CYP2C9 [9] = target: T1, CYP2C9; conditions: in vitro study; cited from earlier work
CYP2C8 [10] = conditions: expressed CYPs; cited from earlier work
expressed CYP2B6 [11] = target: T5, expressed CYP2B6 (Homo sapiens, UniProt P20813); experiment: Inhibition of expressed CYP2B6; format: in vitro ADME; conditions: substrate bupropion
T5 sequence (P20813 1-491): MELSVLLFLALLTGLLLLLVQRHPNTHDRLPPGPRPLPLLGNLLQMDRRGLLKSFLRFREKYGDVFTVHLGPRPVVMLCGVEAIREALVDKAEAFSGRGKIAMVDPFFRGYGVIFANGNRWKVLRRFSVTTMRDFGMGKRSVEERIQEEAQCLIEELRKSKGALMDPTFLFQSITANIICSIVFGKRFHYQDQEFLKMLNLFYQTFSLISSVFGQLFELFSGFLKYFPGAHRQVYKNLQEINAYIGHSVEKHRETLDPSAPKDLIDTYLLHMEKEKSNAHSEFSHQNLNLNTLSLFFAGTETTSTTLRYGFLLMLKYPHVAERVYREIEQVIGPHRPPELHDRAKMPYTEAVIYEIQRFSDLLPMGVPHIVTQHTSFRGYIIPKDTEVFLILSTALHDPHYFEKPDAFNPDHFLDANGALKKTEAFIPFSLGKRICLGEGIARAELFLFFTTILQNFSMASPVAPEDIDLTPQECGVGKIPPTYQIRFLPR

CYP2C9 [12] = target: T1, CYP2C9; experiment: Inhibition of CYP2C9; format: in vitro ADME
UGT2B7 = conditions: in vitro; cited from earlier work
CYP3A = CYP3A (Homo sapiens, UniProt P08684); experiment: Inhibition of CYP3A; format: in vitro ADME; conditions: pooled human liver microsomes, pH 7.4, probe testosterone (6-β hydroxylation), 10 μM, inhibition of CYP3A activity, 50 μM efavirenz, pooled HLMs, 10 μM testosterone
CYP3A, sequence (P08684 2-503): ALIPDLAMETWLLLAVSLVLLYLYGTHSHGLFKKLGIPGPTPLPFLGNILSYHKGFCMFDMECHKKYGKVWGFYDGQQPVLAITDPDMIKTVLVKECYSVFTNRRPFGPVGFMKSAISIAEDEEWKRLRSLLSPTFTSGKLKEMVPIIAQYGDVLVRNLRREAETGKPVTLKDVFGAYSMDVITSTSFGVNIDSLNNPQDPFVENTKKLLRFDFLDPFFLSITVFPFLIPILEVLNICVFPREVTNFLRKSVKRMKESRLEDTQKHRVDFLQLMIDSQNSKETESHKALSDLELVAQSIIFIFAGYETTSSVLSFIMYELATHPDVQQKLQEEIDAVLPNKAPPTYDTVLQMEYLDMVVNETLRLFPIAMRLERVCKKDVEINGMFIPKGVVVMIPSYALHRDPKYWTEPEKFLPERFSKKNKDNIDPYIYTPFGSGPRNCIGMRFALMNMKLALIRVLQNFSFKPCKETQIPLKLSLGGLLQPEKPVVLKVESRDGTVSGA

[13] = Efavirenz plasma pharmacokinetics; format: in vivo; conditions: human, po, 600 mg
CYP2C8 [14] = target: T3, CYP2C8; experiment: in vitro; conditions: microsomes, pH 7.4
expressed CYP2C8 = target: T6, expressed CYP2C8 (Homo sapiens, UniProt P10632); experiment: Inhibition of expressed CYP2C8; format: in vitro ADME
T6 sequence (P10632 1-490): T2 sequence (P10632 1-490 R139K/K399R) with K139R, R399K

[15] = cited from earlier work
CYP2A6 = target: T7, CYP2A6 (Homo sapiens, UniProt P11509); experiment: Inhibition of CYP2A6; format: in vitro ADME; conditions: pooled human liver microsomes, pH 7.4, probe coumarin (7-hydroxylation)
T7 sequence (P11509 1-494): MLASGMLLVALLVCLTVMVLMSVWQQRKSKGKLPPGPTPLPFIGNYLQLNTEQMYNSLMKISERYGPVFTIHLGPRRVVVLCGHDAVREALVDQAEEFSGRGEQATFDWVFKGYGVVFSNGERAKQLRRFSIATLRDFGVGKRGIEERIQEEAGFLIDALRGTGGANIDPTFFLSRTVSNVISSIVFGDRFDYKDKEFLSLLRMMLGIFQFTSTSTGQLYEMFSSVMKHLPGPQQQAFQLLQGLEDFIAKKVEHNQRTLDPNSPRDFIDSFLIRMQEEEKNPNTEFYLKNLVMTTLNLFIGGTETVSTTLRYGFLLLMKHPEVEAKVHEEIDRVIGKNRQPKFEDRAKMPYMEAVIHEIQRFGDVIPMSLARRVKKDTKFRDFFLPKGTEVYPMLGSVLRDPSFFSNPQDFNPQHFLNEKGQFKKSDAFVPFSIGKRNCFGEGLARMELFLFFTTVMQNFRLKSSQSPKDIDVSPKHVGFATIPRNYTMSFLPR

CYP2D6 = CYP2D6 (Homo sapiens, UniProt P10635); experiment: Inhibition of CYP2D6; format: in vitro ADME; conditions: pooled human liver microsomes, pH 7.4, probe dextromethorphan (O-demethylation)
CYP2D6, sequence (P10635 whole entry): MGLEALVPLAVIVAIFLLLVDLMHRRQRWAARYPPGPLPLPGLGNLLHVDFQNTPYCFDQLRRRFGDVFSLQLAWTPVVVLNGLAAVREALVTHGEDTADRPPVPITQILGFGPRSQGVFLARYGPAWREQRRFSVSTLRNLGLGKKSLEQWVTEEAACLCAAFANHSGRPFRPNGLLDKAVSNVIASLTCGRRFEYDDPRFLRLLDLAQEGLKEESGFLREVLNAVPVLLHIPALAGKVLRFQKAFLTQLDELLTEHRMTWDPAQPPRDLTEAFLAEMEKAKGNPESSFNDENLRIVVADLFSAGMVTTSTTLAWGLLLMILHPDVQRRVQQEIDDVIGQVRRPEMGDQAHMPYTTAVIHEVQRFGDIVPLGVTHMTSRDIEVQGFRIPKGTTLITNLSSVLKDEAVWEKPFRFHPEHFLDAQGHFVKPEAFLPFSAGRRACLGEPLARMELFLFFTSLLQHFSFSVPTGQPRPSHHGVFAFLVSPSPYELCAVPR

CYP2B6 [16] = target: T8, CYP2B6 (Homo sapiens, UniProt P20813); conditions: substrate bupropion
T8 sequence (P20813 1-491): T5 sequence (P20813 1-491)

CYP2C19 [17] = target: T4, CYP2C19; conditions: fraction of substrate metabolized by the inhibited CYP pathway (CYP2C19); cited from earlier work

T1 sequence (P11712 whole entry): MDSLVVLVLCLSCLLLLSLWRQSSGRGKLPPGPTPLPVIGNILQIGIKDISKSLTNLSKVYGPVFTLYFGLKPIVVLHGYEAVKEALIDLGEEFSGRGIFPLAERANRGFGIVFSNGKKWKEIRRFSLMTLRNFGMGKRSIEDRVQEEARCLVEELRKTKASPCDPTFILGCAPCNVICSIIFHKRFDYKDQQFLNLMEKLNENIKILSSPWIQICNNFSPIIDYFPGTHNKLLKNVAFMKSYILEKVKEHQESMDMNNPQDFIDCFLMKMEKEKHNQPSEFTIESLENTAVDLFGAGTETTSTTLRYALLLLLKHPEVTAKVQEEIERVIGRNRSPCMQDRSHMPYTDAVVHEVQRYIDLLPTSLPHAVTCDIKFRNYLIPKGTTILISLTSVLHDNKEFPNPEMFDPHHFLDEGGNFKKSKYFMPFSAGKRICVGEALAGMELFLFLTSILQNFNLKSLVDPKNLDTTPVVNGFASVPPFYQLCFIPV

CC(NC(C)(C)C)C(=O)c1cccc(Cl)c1 (stereo not shown) [bupropion]
Km (CYP2B6 [1]; bupropion as CYP2B6 substrate): 90 to 130 µM

O=C1NC(=O)C(c2ccccc2)(c2ccccc2)N1 [Phenytoin]
fm (CYP2C9 [2]): 0.90 [57]) | Predicted AUC Ratio (CYP2C9 [3]): 1.7 -2.0

O=C1Nc2ccc(Cl)cc2[C@@](C#CC2CC2)(C(F)(F)F)O1 [efavirenz, Efavirenz]
inhibition of CYP1A2 activity (CYP1A2; efavirenz 10 and 50 μM, pooled HLMs): did not indicate that efavirenz inhibits CYP1A2 activity | KI value (time-dependent inhibition) (expressed CYP2B6 [4]): 30 µM | Ki (CYP2C8 [5]): 4.8 ± 0.35 µM | inhibition model (CYP2C8 [5]; HLMs with CYP2C8*3/*3, substrate amodiaquine): competitive | inhibition model (CYP2C8 [6]): competitive | Ki (CYP2C19 [7]): 21.3 ± 2.57 µM | inhibition model (CYP2C19 [7]; pooled HLMs, substrate S-mephenytoin): competitive | time-dependent inhibition of CYP activity ([8]; preincubation for 30 min): only marginally inhibited | time-dependent inactivation ([8]; shorter preincubation times (5-15 min)): did not show any indication of time-dependent inactivation | IC50 (CYP2C9 [9]): ~15 µM | IC50 (CYP2C8 [10]): 4 µM | inhibition model (expressed CYP2B6 [11]): competitive | Ki (CYP2C9 [12]): 19.5 ± 2.78 µM | inhibition model (CYP2C9 [12]; pooled HLMs, substrate tolbutamide): non-competitive | inhibition of UGT2B7 (UGT2B7): moderate inhibitor | inhibition at 50 μM (CYP3A): > 20% | Km (CYP2B6 [1]): 13 to 20 µM | Cmax [13]: 4.6 to 8.4 µM | Ki (CYP2C8 [14]): 4.78 ± 2.24 µM | Ki (expressed CYP2C8): 6.05 ± 2.86 µM | inhibition model (expressed CYP2C8; expressed CYP2C8, substrate amodiaquine): competitive | Ka absorption rate constant [15]: 0.3 h⁻¹ | inhibition at 10 μM (CYP2A6): < 10% | inhibition at 50 μM (CYP2A6; 10 μM): < 10% | inhibition at 10 μM (CYP2D6): < 10% | inhibition at 50 μM (CYP2D6; 10 μM): < 10% | inhibition model (CYP2B6 [16]; CMV negative HLMs): competitive | inhibition model (CYP2B6 [16]; pooled HLMs): competitive

CC(=O)C[C@@H](c1ccccc1)c1c(O)c2ccccc2oc1=O [S-Warfarin]
Predicted AUC Ratio (CYP2C9 [3]): 1.7 -2.0

COc1ccc2[nH]c([S+]([O-])Cc3ncc(C)c(OC)c3C)nc2c1 (stereo not shown) [Omeprazole]
fm (CYP2C19 [17]): 0.87 [26])

O=C1Nc2c(O)cc(Cl)cc2[C@@](C#CC2CC2)(C(F)(F)F)O1 [8-hydroxyefavirenz]
inhibition of CYP1A2 (CYP1A2; 8-hydroxyefavirenz up to 10 μM (0.5 to 10 μM), pooled HLMs 1 mg/ml, 30 min): ~ 20%

Reference: article PMC4075192 (Drug metabolism and pharmacokinetics, 2013)
